The nature of data set [1]: LNP size, PDI and zeta potential by Dynamic Light Scattering (Method A). Type of data set: physicochemical. As to conditions: LNP formulated by Method A; for Zeta potential (mV): 1xPBS pH 7.4; for PDI / Size (nm): DLS; for Size (nm): Luciferase-mRNA loaded. The gist of the method: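 LNPs formulated by microfluidic mixing of mRNA in 10 mM citrate pH 4.0 with ethanolic lipid mix (ionizable lipid added to master mix) at 3:1 aqueous:lipid ratio, then dialysed (100 kDa MWCO). Size, PDI and zeta potential measured by dynamic light scattering.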

Data set [2] is described as follows: Encapsulation efficiency, RiboGreen RNA assay (Method A). As to conditions: LNP formulated by Method A. It counts as physicochemical. The gist of the method:
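mRNA-LNPs (Method A formulation) diluted in TE buffer pH 7.4/7.5 and measured in duplicate with and without Triton lysis (37° C., 10 min). RiboGreen fluorescence read at ex 480/em 525. mRNA quantified against a standard curve.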

The source of these data is patent US20260008793A1, “IONIZABLE CATIONIC LIPIDS INCORPORATING SILICON” (ALDEXCHEM KFT., priority 2022, published 2026).

Consider `CCCCCCCC[Si](C)(C)OC(CCCCCCC)OCCCCCCN(CCCCCCOC(CCCCCCC)O[Si](C)(C)CCCCCCCC)CCC1CCCN1C` (stereo not drawn) [Example 120, 6-((1-((dimethyl(octyl)silyl)oxy)octyl)oxy)-N-(6-((1-((dimethyl(octyl)silyl)oxy)octyl)oxy)hexyl)-N-(2-(1-methylpyrrolidin-2-yl)ethyl)hexan-1-amine], for which, in data set [1], the “Zeta potential (mV)” value was −13.18 mV, the PDI came to 0.055 and the “Size (nm)” value is given as 161.4 nm. For the same molecule, the “EE (%)” value in data set [2] is reported as 98%.

`CCCCCCCCC(CCCCCC)C(=O)OCCCCCCN(CCCCO)CCCCCCOC(=O)C(CCCCCC)CCCCCCCC` (stereo not drawn) [ALC-0315, reference compound]: in data set [1], the “Zeta potential (mV)” value is on record as −11.12 mV, the PDI was found to be 0.113 and the “Size (nm)” value was 172.6 nm. Further, the “EE (%)” value in data set [2] was 94%.

Regarding `CC/C=C\C/C=C\C/C=C\C/C=C\C/C=C\CCCCN(CCCCO)CCCCCCO[Si](C)(C)OC(CCCCCCC)OCCCCCCCC` (stereo not drawn) [Example 205, 15-heptyl-5-((5Z,8Z,11Z,14Z,17Z)-icosa-5,8,11,14,17-pentaen-1-yl)-13,13-dimethyl-12,14,16-trioxa-5-aza-13-silatetracosan-1-ol], in data set [1], the “Zeta potential (mV)” value is −13.13 mV, the PDI is 0.077 and the “Size (nm)” value came to 197.2 nm. Further, the “EE (%)” value in data set [2] is reported as 97%.

For `CCCCCCCCOC(CCCCCCC)O[Si](C)(C)CCCCCCN(CCCCO)CCC[C@@H](C)C1CCC2C3CCC4C[C@H](OC)CC[C@]4(C)C3CC[C@@]21C` (stereo partly drawn) [Example 224, 14-heptyl-5-((4R)-4-((3R,10S,13R)-3-methoxy-10,13-dimethylhexadecahydro-1H-cyclopenta[a]phenanthren-17-yl)pentyl)-12,12-dimethyl-13,15-dioxa-5-aza-12-silatricosan-1-ol], in data set [1], the “Zeta potential (mV)” value is listed as −16.58 mV, the PDI worked out at 0.08 and the “Size (nm)” value is on record as 176.5 nm. Moreover, the “EE (%)” value in data set [2] came to 97%.

For the molecule `CCCCCCCCOC(CCCCCCC)O[Si](C)(C)OCCCCCCN(CCCCO)CCCCCCOC(=O)C(CCCCCC)CCCCCCCC` (stereo not drawn) [Example 139, 17-heptyl-7-(4-hydroxybutyl)-15,15-dimethyl-14,16,18-trioxa-7-aza-15-silahexacosyl 2-hexyldecanoate], in data set [1], the “Zeta potential (mV)” value was −12.3 mV, the PDI came to 0.14 and the “Size (nm)” value is listed as 137.4 nm. In addition, the “EE (%)” value in data set [2] worked out at 94%.

Consider `CCCCCCCCOC(CCCCCN(CCCCO)CCC[C@@H](C)C1CCC2C3CCC4C[C@H](OC)CC[C@]4(C)C3CC[C@@]21C)O[Si](C)(C)OCC(CCCCCC)CCCCCCCC` (stereo partly drawn) [Example 222, 16-hexyl-5-((4R)-4-((3R,10S,13R)-3-methoxy-10,13-dimethylhexadecahydro-1H-cyclopenta[a]phenanthren-17-yl)pentyl)-13,13-dimethyl-11-(octyloxy)-12,14-dioxa-5-aza-13-silatetracosan-1-ol], for which, in data set [1], the “Zeta potential (mV)” value was −16.36 mV, the PDI was found to be 0.121 and the “Size (nm)” value was found to be 164.5 nm. The “EE (%)” value in data set [2] is 94%.

Regarding `CC/C=C\C/C=C\C/C=C\C/C=C\C/C=C\CCCCN(CCCCO)CCCCCC(OCCCCCCCC)O[Si](C)(C)O[Si](C)(C)CCCCCCCC` (stereo not drawn) [Example 198, 4-(((5Z,8Z,11Z,14Z,17Z)-icosa-5,8,11,14,17-pentaen-1-yl)(6-(octyloxy)-6-((1,1,3,3-tetramethyl-3-octyldisiloxaneyl)oxy)hexyl)amino)butan-1-ol], in data set [1], the “Zeta potential (mV)” value was −13.07 mV, the PDI is 0.004 and the “Size (nm)” value worked out at 158 nm. The “EE (%)” value in data set [2] is given as 98%.

As for `CC/C=C\C/C=C\C/C=C\C/C=C\C/C=C\CCCCN(CCCCO)CCCCCCOC(CCCCCCC)O[Si](C)(C)O[Si](C)(C)OCCCCCCCC` (stereo not drawn) [Example 201, 13-heptyl-5-((5Z,8Z,11Z,14Z,17Z)-icosa-5,8,11,14,17-pentaen-1-yl)-15,15,17,17-tetramethyl-12,14,16,18-tetraoxa-5-aza-15,17-disilahexacosan-1-ol], in data set [1], the “Zeta potential (mV)” value is −13.1 mV, the PDI was determined as 0.055 and the “Size (nm)” value is listed as 176.2 nm. The “EE (%)” value in data set [2] is on record as 95%.

`CCCCCCCCOC(CCCCCCC)O[Si](C)(C)OCCCCCCN(CCCCO)CCC[C@@H](C)C1CCC2C3CCC4C[C@H](OC)CC[C@]4(C)C3CC[C@@]21C` (stereo partly drawn) [Example 225, 15-heptyl-5-((4R)-4-((3R,10S,13R)-3-methoxy-10,13-dimethylhexadecahydro-1H-cyclopenta[a]phenanthren-17-yl)pentyl)-13,13-dimethyl-12,14,16-trioxa-5-aza-13-silatetracosan-1-ol]: in data set [1], the “Zeta potential (mV)” value is listed as −13.58 mV, the PDI was 0.04 and the “Size (nm)” value is recorded as 117.9 nm. Also, in data set [2], the “EE (%)” value was 98%.

For `CCCCCCCCOC(CCCCCN(CCCCO)CCC[C@@H](C)C1CCC2C3CCC4C[C@H](OC)CC[C@]4(C)C3CC[C@@]21C)O[Si](C)(C)CCCCCCCC` (stereo partly drawn) [Example 214, 4-((6-((dimethyl(octyl)silyl)oxy)-6-(octyloxy)hexyl)((4R)-4-((3R,10S,13R)-3-methoxy-10,13-dimethylhexadecahydro-1H-cyclopenta[a]phenanthren-17-yl)pentyl)amino)butan-1-ol], in data set [1], the “Zeta potential (mV)” value is given as −13.59 mV, the PDI is recorded as 0.14 and the “Size (nm)” value is 191.2 nm. The “EE (%)” value in data set [2] is reported as 97%.

As to `CCCCCCCCCCOC(CCCCC)O[Si](C)(C)OCCCCCCN(CCCCO)CCCCCCOC(=O)C(CCCCCC)CCCCCCCC` (stereo not drawn) [Example 145, 7-(4-hydroxybutyl)-15,15-dimethyl-17-pentyl-14,16,18-trioxa-7-aza-15-silaoctacosyl 2-hexyldecanoate], in data set [1], the “Zeta potential (mV)” value was −7.7 mV, the PDI is given as 0.16 and the “Size (nm)” value turned out to be 143.3 nm. For the same molecule, the “EE (%)” value in data set [2] stood at 97%.

Take `CCCCCCCCC(CCCCCC)CO[Si](C)(C)OC(CCCCCCC)OCCCCCCN(CCCCO)CCCCCCOC(=O)C(CCCCCC)CCCCCCCC` (stereo not drawn) [Example 137, 15-heptyl-20-hexyl-7-(4-hydroxybutyl)-17,17-dimethyl-14,16,18-trioxa-7-aza-17-silaoctacosyl 2-hexyldecanoate]: in data set [1], the “Zeta potential (mV)” value is −16.61 mV, the PDI came out at 0.096 and the “Size (nm)” value was 169.2 nm. Further, the “EE (%)” value in data set [2] amounted to 97%.

With `CCCCCCCCOC(CCCCCN(CCCCO)CCC[C@@H](C)C1CCC2C3CCC4C[C@H](OC)CC[C@]4(C)C3CC[C@@]21C)O[Si](C)(C)O[Si](C)(C)OCCCCCCCC` (stereo partly drawn) [Example 220, 4-(((4R)-4-((3R,10S,13R)-3-methoxy-10,13-dimethylhexadecahydro-1H-cyclopenta[a]phenanthren-17-yl)pentyl)(6-(octyloxy)-6-((1,1,3,3-tetramethyl-3-(octyloxy)disiloxaneyl)oxy)hexyl)amino)butan-1-ol], in data set [1], the “Zeta potential (mV)” value was −14.55 mV, the PDI was found to be 0.002 and the “Size (nm)” value is 138.4 nm. Besides, the “EE (%)” value in data set [2] came out at 98%.

On to `CCCCCCCCCOC(CCCCCCC)O[Si](C)(C)OCCCCCCN(CCCCO)CCCCCCOC(=O)C(CCCCCC)CCCCCCCC` (stereo not drawn) [Example 141, 17-heptyl-7-(4-hydroxybutyl)-15,15-dimethyl-14,16,18-trioxa-7-aza-15-silaheptacosyl 2-hexyldecanoate], for which, in data set [1], the “Zeta potential (mV)” value was −10.6 mV, the PDI came to 0.11 and the “Size (nm)” value came out at 129.5 nm. The “EE (%)” value in data set [2] worked out at 95%.

For the molecule `CCCCCCCCOC(CCCCCN(CCCCO)CCCCCCOC(=O)C(CCCCCC)CCCCCCCC)O[Si](C)(C)OCCCCCCCC` (stereo not drawn) [Example 130, 7-(4-hydroxybutyl)-15,15-dimethyl-13-(octyloxy)-14,16-dioxa-7-aza-15-silatetracosyl 2-hexyldecanoate], in data set [1], the “Zeta potential (mV)” value is −11.85 mV, the PDI is recorded as 0.418 and the “Size (nm)” value is given as 587.6 nm. In addition, the “EE (%)” value in data set [2] is listed as 90%.

On to `CC/C=C\C/C=C\C/C=C\C/C=C\C/C=C\CCCCN(CCCCO)CCCCCCOC(CCCCCCC)O[Si](C)(C)O[Si](C)(C)CCCCCCCC` (stereo not drawn) [Example 199, 13-heptyl-5-((5Z,8Z,11Z,14Z,17Z)-icosa-5,8,11,14,17-pentaen-1-yl)-15,15,17,17-tetramethyl-12,14,16-trioxa-5-aza-15,17-disilapentacosan-1-ol], for which, in data set [1], the “Zeta potential (mV)” value is −12.42 mV, the PDI came out at 0.08 and the “Size (nm)” value is 164.3 nm. In addition, the “EE (%)” value in data set [2] was 97%.

For `CCCCCCCCCCSC(CCCC)C(=O)OCCCCCCN(CCCCO)CCCCCCOC(CCCCCCC)O[Si](C)(C)OCC(CCCCCC)CCCCCCCC` (stereo not drawn) [Example 175, 15-heptyl-20-hexyl-7-(4-hydroxybutyl)-17,17-dimethyl-14,16,18-trioxa-7-aza-17-silaoctacosyl 2-(decylthio)hexanoate], in data set [1], the “Zeta potential (mV)” value is reported as −11.78 mV, the PDI was determined as 0.068 and the “Size (nm)” value worked out at 161.2 nm. For the same molecule, the “EE (%)” value in data set [2] was found to be 97%.

Turning to `CCCCCCCC[Si](C)(C)O[Si](C)(C)OC(CCCCCCC)OCCCCCCN(CCCCO)CCC[C@@H](C)C1CCC2C3CCC4C[C@H](OC)CC[C@]4(C)C3CC[C@@]21C` (stereo partly drawn) [Example 219, 13-heptyl-5-((4R)-4-((3R,10S,13R)-3-methoxy-10,13-dimethylhexadecahydro-1H-cyclopenta[a]phenanthren-17-yl)pentyl)-15,15,17,17-tetramethyl-12,14,16-trioxa-5-aza-15,17-disilapentacosan-1-ol], in data set [1], the “Zeta potential (mV)” value is recorded as −16.69 mV, the PDI stood at 0.076 and the “Size (nm)” value came to 139.4 nm. Besides, the “EE (%)” value in data set [2] stood at 98%.
